The record followed here is patent US20250367160A1, “USE OF GUAIJAVERIN IN PREPARATION OF EYE PROTECTION PRODUCT” (Innovation Center of Yangtze River Delta, ZJU, priority 2024, published 2025).

Each structure is given as a SMILES string.

The subject of experiment [1] is ocular apoptotic cells of the zebrafish. Kind of experiment: Anti-blue light eye protection efficacy, AO staining of ocular apoptotic cells in zebrafish blue light eye damage model. The experiment is classed as in vivo. The settings on record: for Fluorescence intensity of ocular apoptotic cells (pixel, mean ± SE): aqueous, 28° C., 1 d, n = 10, model group 45833 ± 4825, normal control 12203 ± 1124. The procedure:
Wild-type AB zebrafish at 1 dpf were randomly selected and irradiated with blue light after membrane rupture to establish the zebrafish blue light eye damage model. Model zebrafish with desirable development status were selected at 3 dpf and randomly distributed in 6-well plates, with 30 zebrafish in each well (experimental group) were treated. Different concentrations of guaijaverin (see Table 2 for concentrations) were administered aqueously, and lutein at a concentration of 62.5 μg/mL were used as a positive control, while a normal control group and a model group were also set up, with a volume of 3 mL per well. After 1 d of treatment at 28° C., the zebrafish in each experimental group were stained with AO in the dark for 30 min and washed 3 times with standard dilution water. 10 zebrafish were randomly selected from each experimental group and photographed under a fluorescence microscope. The data were analyzed and collected using Image J software. The fluorescence intensity of ocular apoptotic cells of the zebrafish was statistically analyzed. The anti-blue light eye protection efficacy of guaijaverin was evaluated based on the statistical analysis results of the above indicators. The statistical result was expressed as mean±SE.

For experiment [2], the system named is T-AOC. Kind of experiment: Mouse retinal optical damage model, plasma total antioxidant capacity (T-AOC). The experiment is classed as in vivo, BALB/c mice. The settings on record: gavage once a day 10 days, vs model group, FIG. 7. The protocol: A self-made light box with a length of 108 cm, a width of 50 cm, and a height of 72 cm was used, and the light intensity was measured by a light meter to be 8,500-10,000 Lux. After eye examination, 60 mice with normal eyeballs were selected and randomly divided into a control group, a model group, a lutein group (100 mg/kg), a guaijaverin low-dose group (50 mg/kg), and a guaijaverin high-dose group (100 mg/kg), with 12 mice in each group. Lutein and guaijaverin were suspended in 5% sodium carboxymethylcellulose (CMC-Na) solution and administered by gavage once a day. The mice in the control and model groups were administered by gavage with an equal volume of 5% CMC-Na for 10 consecutive days. 10 days later, the mice in the model group, lutein group, guaijaverin low-dose group, and guaijaverin high-dose group were kept in the dark for 36 h, atropine eye gel was applied to both eyes of the mice to induce pupil dilation, and the mice were placed in the self-made lighting device of 8,000-10,000 Lux (the control group was raised in a normal environment) and given continuous light for 24 h. […]
The mouse blood was collected in an anticoagulant tube and centrifuged at 3,000 rpm for 10 min at 4° C. to collect the upper plasma. The T-AOC content was determined according to the method provided by the kit manufacturer.

In experiment [3] the test system is mouse retinal apoptotic cells. Kind of experiment: Mouse retinal optical damage model, TUNEL staining of retinal apoptotic cells. The experiment is classed as in vivo, BALB/c mice. The conditions noted are these: for retinal cell apoptosis caused by light (TUNEL): gavage once a day 10 days, vs model group, FIG. 6. The protocol: A self-made light box with a length of 108 cm, a width of 50 cm, and a height of 72 cm was used, and the light intensity was measured by a light meter to be 8,500-10,000 Lux. After eye examination, 60 mice with normal eyeballs were selected and randomly divided into a control group, a model group, a lutein group (100 mg/kg), a guaijaverin low-dose group (50 mg/kg), and a guaijaverin high-dose group (100 mg/kg), with 12 mice in each group. Lutein and guaijaverin were suspended in 5% sodium carboxymethylcellulose (CMC-Na) solution and administered by gavage once a day. The mice in the control and model groups were administered by gavage with an equal volume of 5% CMC-Na for 10 consecutive days. 10 days later, the mice in the model group, lutein group, guaijaverin low-dose group, and guaijaverin high-dose group were kept in the dark for 36 h, atropine eye gel was applied to both eyes of the mice to induce pupil dilation, and the mice were placed in the self-made lighting device of 8,000-10,000 Lux (the control group was raised in a normal environment) and given continuous light for 24 h. After the light exposure, the mice in each group had their eyeballs removed to draw blood and eyeball tissue collected for subsequent experimental tests.
Eyeball tissues of 6 mice were collected from each group for Hematoxylin-eosin staining (H&E) and TUNEL fluorescence staining of apoptotic cells, and the pathological changes of mouse eyeball tissues were observed using an optical microscope (completed by Wuhan Servicebio Biotechnology Co., Ltd.).
a) Dewaxing the paraffin sections to water: the sections were sequentially placed into environmental-friendly dewaxing solution I for 10 min, environmental-friendly dewaxing solution II for 10 min, environmental-friendly dewaxing solution III for 10 min, anhydrous ethanol I for 5 min, anhydrous ethanol II for 5 min, anhydrous ethanol III for 5 min and washed with distilled water.
b) Proteinase K repair: after the sections were slightly dried, a tissue pen was used to draw a circle around the tissue (to prevent the liquid from flowing away), a proteinase K working solution was added in the circle to cover the tissue, and incubated in a 37° C. incubator for 20 min. The slides were placed in PBS (PH=7.4) and washed 3 times on a decolorizing shaker, each time for 5 min. (Preparation method of proteinase K working solution, stock solution:PBS=1:9). […]
g) Sealing: the slides were placed in PBS (PH7.4) and washed on a decolorizing shaker for 3 times, 5 min each time. The sections were slightly spin-dried and mounted with anti-fluorescence fading mounting medium. […]

On to `O=c1c(O[C@@H]2OC[C@H](O)[C@H](O)[C@H]2O)c(-c2ccc(O)c(O)c2)oc2cc(O)cc(O)c12` [Guaijaverin, guaijaverin], for which the “Fluorescence intensity of ocular apoptotic cells (pixel, mean ± SE)” value in experiment [1] (62.5 μg/mL) amounted to 31471 ± 2353 pixel; in experiment [1] (125 μg/mL), 24765 ± 2077 pixel; in experiment [1] (150 μg/mL) it was 18149 ± 1688 pixel. In addition, the “eye protection effect against blue optical damage compared with lutein” value in experiment [1] (125 μg/mL vs lutein 62.5 μg/mL) is listed as “same significant eye protection effect as lutein”; in experiment [1] (150 μg/mL vs lutein 62.5 μg/mL) it was “more significant eye protection effect than lutein”. Also, the “plasma T-AOC level” value in experiment [2] (high-dose 100 mg/kg) and in experiment [2] (low-dose 50 mg/kg) was “significantly increase the T-AOC level” in each case. Also, the “protective effect on retinal cell apoptosis compared with lutein (TUNEL)” value in experiment [3] (high-dose 100 mg/kg vs lutein 100 mg/kg) is “better protective effect than lutein”; in experiment [3] (low-dose 50 mg/kg vs lutein 100 mg/kg) it was “comparable to that of the positive control lutein”. Also, the “retinal cell apoptosis caused by light (TUNEL)” value in experiment [3] (high-dose 100 mg/kg) and in experiment [3] (low-dose 50 mg/kg) was “effectively improve retinal cell apoptosis caused by light” throughout.
